Literature values in US20100137292A1, “Pharmaceutical formulations of meloxicam” (SANOVEL ILAC SANAYI VE TICARET A.S., priority 2008, published 2010).

Cc1cnc(NC(=O)C2=C(O)c3ccccc3S(=O)(=O)N2C)s1 [Meloxicam, 4-hydroxy-2-methyl-N-(5-methyl-2-thiazolyl)-2H-1,2-benzothiazine-3-carboxamide-1,1-dioxide]
Solubility in alcohol (alcohol): very slightly soluble | Solubility in water (water): practically insoluble
